# Results from patent publication US20130217664A1, “NOVEL COMPOUNDS USEFUL FOR THE TREATMENT OF DEGENERATIVE AND INFLAMMATORY DISEASES” (priority 2012, published 2013).
# Where two headings read alike, the source gives them in different places.
# How the values were obtained:
# human JAK3 = biological target: T1, human JAK3 (Homo sapiens, UniProt P52333); test: JAK3 inhibition assay; format: biochemical; conditions: recombinant human JAK3 catalytic domain; polyGT substrate
# T1 construct: catalytic domain (amino acids 781-1124; catalog number PV3855); purchased Invitrogen PV3855
# T1 sequence (P52333 781-1124): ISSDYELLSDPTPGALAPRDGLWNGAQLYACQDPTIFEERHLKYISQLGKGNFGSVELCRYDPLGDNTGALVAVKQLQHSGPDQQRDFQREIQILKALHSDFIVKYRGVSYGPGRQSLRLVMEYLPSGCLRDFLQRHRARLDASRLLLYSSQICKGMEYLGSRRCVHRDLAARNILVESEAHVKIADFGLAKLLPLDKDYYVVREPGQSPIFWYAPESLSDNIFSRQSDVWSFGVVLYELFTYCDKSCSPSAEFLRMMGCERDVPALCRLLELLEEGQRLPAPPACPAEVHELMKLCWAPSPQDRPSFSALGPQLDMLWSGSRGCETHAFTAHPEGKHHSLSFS
# How it was run: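 Radiometric kinase assay: 0.5 ng JAK3 with 2.5 μg polyGT in Tris pH 7.5/MgCl2 buffer, 1 μM ATP plus 0.25 μCi 33P-γ-ATP, 1% DMSO, 45 min at 30 °C, stopped with phosphoric acid.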
# human TYK2 = biological target: T2, human TYK2 (Homo sapiens, UniProt P29597); test: TYK2 inhibition assay; format: biochemical; conditions: recombinant human TYK2 catalytic domain, polyGT substrate
# T2 construct: catalytic domain (amino acids 871-1187; catalog number 08-147); purchased Carna Biosciences 08-147
# T2 sequence (P29597 871-1187): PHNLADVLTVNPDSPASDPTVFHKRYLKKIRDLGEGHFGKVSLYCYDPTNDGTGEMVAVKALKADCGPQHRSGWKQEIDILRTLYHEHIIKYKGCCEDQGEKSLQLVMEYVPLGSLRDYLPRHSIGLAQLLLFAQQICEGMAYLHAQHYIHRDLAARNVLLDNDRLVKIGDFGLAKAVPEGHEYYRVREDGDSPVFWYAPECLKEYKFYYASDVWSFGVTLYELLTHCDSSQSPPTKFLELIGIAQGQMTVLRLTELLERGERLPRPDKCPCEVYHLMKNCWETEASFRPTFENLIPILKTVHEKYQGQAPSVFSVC
# How it was run: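 Radiometric kinase reaction run 90 min at 30 °C, stopped with phosphoric acid, washed and scintillation-counted.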
# [1] = system: pSTAT1(2)-luciferase reporter in HeLa cells triggered with human OSM; test: JAK-STAT signalling assay; format: cell-based; conditions: read-out: JAK-STAT IC50
# How it was run: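 Compound added 60 min before 33 ng/mL (final) human OSM; after overnight stimulation at 37 °C, luciferase signal from a transiently transfected pSTAT1(2) reporter in HeLa cells was read, with LacZ as internal control. EC50 derived from percent-inhibition dose-response curves.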
# human JAK1 = biological target: T3, human JAK1 (Homo sapiens, UniProt P23458); test: JAK1 inhibition assay (polyGT substrate / Ulight-JAK1 peptide); format: biochemical; conditions: recombinant human JAK1 catalytic domain; polyGT or Ulight-JAK1 peptide assay
# T3 construct: catalytic domain, amino acids 866-1154; catalog number PV4774; purchased Invitrogen PV4774
# T3 sequence (P23458 866-1154): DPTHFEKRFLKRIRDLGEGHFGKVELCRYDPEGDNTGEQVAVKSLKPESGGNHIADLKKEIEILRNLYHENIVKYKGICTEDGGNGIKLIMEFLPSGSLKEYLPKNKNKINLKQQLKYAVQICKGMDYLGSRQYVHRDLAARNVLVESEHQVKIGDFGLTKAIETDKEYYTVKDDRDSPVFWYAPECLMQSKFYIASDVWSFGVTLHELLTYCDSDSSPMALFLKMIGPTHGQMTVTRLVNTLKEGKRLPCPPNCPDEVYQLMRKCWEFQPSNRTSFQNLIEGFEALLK
# How it was run: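 Signal scaled between vehicle and 10 μM staurosporine. Radiometric polyGT reactions ran 45 min at 30 °C, counted after phosphoric-acid stop. Ulight peptide reactions ran 60 min at room temperature, fluorescence read after adding Eu-PT66 detection mix with EDTA.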
# [2] = Homo sapiens, HeLa, HeLa cells, pSTAT1(2)-luciferase reporter, human OSM 33 ng/mL
# [3] = HeLa cells, pSTAT1(2)-luciferase reporter, human OSM 33 ng/mL
IC50 (human JAK3) [nM],IC50 (human TYK2) [nM],"IC50 [1, 2] [nM]",IC50 (human JAK1) [nM],"IC50 [1, 3] [nM]",SMILES,"IC50 ([1]; Homo sapiens, HeLa) [nM]"
0.01 to 100,0.01 to 100,1 to 500,0.01 to 100,,"CCc1cc(C2=CCN(C(=O)C(O)C(F)(F)F)CC2)ccc1N(C)c1cc2c(cn1)ncn2C (stereo not shown) [Compound 230, 1-(4-(3-ethyl-4-(methyl(1-methyl-1H-imidazo[4,5-c]pyridin-6-yl)amino)phenyl)-5,6-dihydropyridin-1(2H)-yl)-3,3,3-trifluoro-2-hydroxypropan-1-one]",
101 to 500,0.01 to 100,1 to 500,0.01 to 100,,"CCc1cc(C2=CCN(C(=O)C(C)(C)O)CC2)ccc1N(C)c1cc2c(cn1)ncn2C [Compound 231, 1-(4-(3-ethyl-4-(methyl(1-methyl-1H-imidazo[4,5-c]pyridin-6-yl)amino)phenyl)-5,6-dihydropyridin-1(2H)-yl)-2-hydroxy-2-methylpropan-1-one]",
0.01 to 100,0.01 to 100,> 1000,0.01 to 100,,"CCc1cc(C2=CCN(S(=O)(=O)CC(F)(F)F)CC2)ccc1N(C)c1cc2c(cn1)ncn2C [Compound 232, N-(2-ethyl-4-(1-(2,2,2-trifluoroethylsulfonyl)-1,2,3,6-tetrahydropyridin-4-yl)phenyl)-N,1-dimethyl-1H-imidazo[4,5-c]pyridin-6-amine]",
101 to 500,0.01 to 100,,0.01 to 100,501 to 1000,"CCc1cc(C2CCN(C(=O)C(C)O)CC2)ccc1N(C)c1cc2c(cn1)ncn2C (stereo not shown) [Compound 235, 1-(4-(3-ethyl-4-(methyl(1-methyl-1H-imidazo[4,5-c]pyridin-6-yl)amino)phenyl)piperidin-1-yl)-2-hydroxypropan-1-one]",
0.01 to 100,0.01 to 100,1 to 500,0.01 to 100,,"CCc1cc(-c2cnn(Cc3cccc(OC)c3)c2)ccc1N(C)c1cc2c(cn1)ncn2C [Compound 236, N-(2-ethyl-4-(1-(3-methoxybenzyl)-1H-pyrazol-4-yl)phenyl)-N,1-dimethyl-1H-imidazo[4,5-c]pyridin-6-amine]",
101 to 500,0.01 to 100,1 to 500,0.01 to 100,,"CCc1cc(-c2cnn(Cc3ccc(C)cc3)c2)ccc1N(C)c1cc2c(cn1)ncn2C [Compound 237, N-(2-ethyl-4-(1-(4-methylbenzyl)-1H-pyrazol-4-yl)phenyl)-N,1-dimethyl-1H-imidazo[4,5-c]pyridin-6-amine]",
101 to 500,0.01 to 100,1 to 500,0.01 to 100,,"CCc1cc(-c2cnn(Cc3ccc(F)cc3)c2)ccc1N(C)c1cc2c(cn1)ncn2C [Compound 238, N-(2-ethyl-4-(1-(4-fluorobenzyl)-1H-pyrazol-4-yl)phenyl)-N,1-dimethyl-1H-imidazo[4,5-c]pyridin-6-amine]",
101 to 500,101 to 500,1 to 500,0.01 to 100,,"CCc1cc(-c2cnn(Cc3ccc(Cl)cc3)c2)ccc1N(C)c1cc2c(cn1)ncn2C [Compound 239, N-(4-(1-(4-chlorobenzyl)-1H-pyrazol-4-yl)-2-ethylphenyl)-N,1-dimethyl-1H-imidazo[4,5-c]pyridin-6-amine]",
501 to 1000,0.01 to 100,501 to 1000,0.01 to 100,,"CCCn1cc(-c2ccc(N(C)c3cc4c(cn3)ncn4C)c(CC)c2)cn1 [Compound 240, N-(2-ethyl-4-(1-propyl-1H-pyrazol-4-yl)phenyl)-N,1-dimethyl-1H-imidazo[4,5-c]pyridin-6-amine]",
101 to 500,101 to 500,1 to 500,0.01 to 100,,"CCc1cc(-c2cnn(CC)c2)ccc1N(C)c1cc2c(cn1)ncn2C [Compound 241, N-(2-ethyl-4-(1-ethyl-1H-pyrazol-4-yl)phenyl)-N,1-dimethyl-1H-imidazo[4,5-c]pyridin-6-amine]",
501 to 1000,101 to 500,,0.01 to 100,> 1000,"CCc1cc(-c2cnn(CC3(C)COC3)c2)ccc1N(C)c1cc2c(cn1)ncn2C [Compound 242, N-(2-ethyl-4-(1-((3-methyloxetan-3-yl)methyl)-1H-pyrazol-4-yl)phenyl)-N,1-dimethyl-1H-imidazo[4,5-c]pyridin-6-amine]",
0.01 to 100,0.01 to 100,1 to 500,0.01 to 100,,"CCc1cc(C2=CCN(S(=O)(=O)C(C)C)CC2)ccc1N(C)c1cc2c(cn1)ncn2C [Compound 246, N-(2-ethyl-4-(1-(isopropylsulfonyl)-1,2,3,6-tetrahydropyridin-4-yl)phenyl)-N,1-dimethyl-1H-imidazo[4,5-c]pyridin-6-amine]",
0.01 to 100,0.01 to 100,1 to 500,0.01 to 100,,"CCc1cc(C2=CCN(S(=O)(=O)CC#N)CC2)ccc1N(C)c1cc2c(cn1)ncn2C [Compound 247, 2-(4-(3-ethyl-4-(methyl(1-methyl-1H-imidazo[4,5-c]pyridin-6-yl)amino)phenyl)-5,6-dihydropyridin-1(2H)-ylsulfonyl)acetonitrile]",
0.01 to 100,0.01 to 100,1 to 500,0.01 to 100,,"CCc1cc(C2=CCN(C(=O)C(C)NC(=O)OC(C)(C)C)CC2)ccc1N(C)c1cc2c(cn1)ncn2C (stereo not shown) [Compound 249, tert-butyl 1-(4-(3-ethyl-4-(methyl(1-methyl-1H-imidazo[4,5-c]pyridin-6-yl)amino)phenyl)-5,6-dihydropyridin-1(2H)-yl)-1-oxopropan-2-ylcarbamate]",
501 to 1000,0.01 to 100,1 to 500,0.01 to 100,,"CCc1cc(C2=CCN(C(=O)C(C)OC)CC2)ccc1N(C)c1cc2c(cn1)ncn2C (stereo not shown) [Compound 250, 1-(4-(3-ethyl-4-(methyl(1-methyl-1H-imidazo[4,5-c]pyridin-6-yl)amino)phenyl)-5,6-dihydropyridin-1(2H)-yl)-2-methoxypropan-1-one]",
101 to 500,0.01 to 100,1 to 500,0.01 to 100,,"CCc1cc(C2=CCN(C(=O)[C@H](C)O)CC2)ccc1N(C)c1cc2c(cn1)ncn2C [Compound 251, (S)-1-(4-(3-ethyl-4-(methyl(1-methyl-1H-imidazo[4,5-c]pyridin-6-yl)amino)phenyl)-5,6-dihydropyridin-1(2H)-yl)-2-hydroxypropan-1-one]",
101 to 500,101 to 500,> 1000,0.01 to 100,,"CCc1cc(CNC(=O)CC#N)ccc1N(C)c1cc2c(cn1)ncn2C [Compound 255, 2-cyano-N-(3-ethyl-4-(methyl(1-methyl-1H-imidazo[4,5-c]pyridin-6-yl)amino)benzyl)acetamide]",
0.01 to 100,0.01 to 100,1 to 500,0.01 to 100,,"CCc1cc(C2=CCN(C(=O)Nc3ncns3)CC2)ccc1N(C)c1cc2c(cn1)ncn2C [Compound 257, 4-(3-Ethyl-4-(methyl(1-methyl-1H-imidazo[4,5-c]pyridin-6-yl)amino)phenyl)-N-(1,2,4-thiadiazol-5-yl)-5,6-dihydropyridine-1(2H)-carboxamide]",

SMILES,IC50 (human JAK3) [nM],IC50 (human TYK2) [nM],"IC50 [1, 2] [nM]",IC50 (human JAK1) [nM],"IC50 [1, 3] [nM]","IC50 ([1]; Homo sapiens, HeLa) [nM]"
"CCc1cc(C2=CCN(C(=O)Nc3nncs3)CC2)ccc1N(C)c1cc2c(cn1)ncn2C [Compound 234, 4-(3-Ethyl-4-(methyl(1-methyl-1H-imidazo[4,5-c]pyridin-6-yl)amino)phenyl)-N-(1,3,4-thiadiazol-5-yl)-5,6-dihydropyridine-1(2H)-carboxamide]",0.01 to 100,0.01 to 100,,0.01 to 100,,1 to 500
